{"source": "patent US20240352419A1", "about": "“METHODS AND COMPOSITIONS FOR DIFFERENTIATION OF PLURIPOTENT STEM CELLS AND DERIVED HEMATOPOIETIC LINEAGE CELLS” (NUWACELL BIOTECHNOLOGIES CO., LTD., priority 2022, published 2024)", "key": {"hiPSCs": {"tested_on": "hiPSCs", "experiment": "Directed differentiation of hiPSCs into HE, HP and iNK cells (flow cytometry KDR, CD34, CD56)", "format": "cell-based, human", "conditions": "for output of CD34+ HP cells / output of CD56+ iNK cells: added during Stage 1-4 (XAV939 5 μM, SB431542 6 μM); for output of CD34+ HP cells: Day 10, vs control, FIG. 8A; for output of CD56+ iNK cells: Day 25, vs control, FIGS. 8B and 8C", "method": "hiPSCs were prepared as described in CN108373998B. On Day −1, Embryoid body (EB) formation (Stage 1-1) was carried out by placing individualized hiPSCs in E8 medium containing 10 μM Blebbistatin in T25 flasks on a bellydancer and culture overnight. On Day 0, lateral mesoderm differentiation (Stage 1-2) was initiated by changing the medium to a Stage 1-2 differentiation medium comprising indicated basal medium (see Table 2.1) and supplemented with BMP4 (25 ng/ml), VEGF (50 ng/mL), bFGF (0.5 ng/ml) and CHIR99021 (4 μM) for 2 days. On Day 2, lateral mesoderm differentiation (Stage 1-3) continued for 1 day in a Stage 1-3 differentiation medium comprising indicated basal medium and supplemented with BMP4 (25 ng/mL), VEGF (50 ng/ml) and bFGF (0.5 ng/ml) and CHIR99021 (1 μM). On Day 3, HE specification (Stage 1-4) was initiated by adding a Stage 1-4 differentiation medium comprising indicated basal medium and supplemented with VEGF (50 ng/mL), bFGF (5 ng/mL), XAV939 (5 μM) for 1 day. On Day 4 (the end of Stage 1-4), EBs were dissociated into single cells and stained with KDR-APC antibody, the percentage of KDR^+ cells were detected by flow cytometry. HP differentiation (Stage 1-5) in was initiated by adding a Stage 1-5 differentiation medium comprising indicated basal medium and supplemented with SCF (10 ng/ml), Flt3L (10 ng/ml), VEGF (15 ng/ml) and bFGF (5 ng/mL) for 3 days. On Day 7 (the end of Stage 1-5), EBs were dissociated into single cells and stained with CD34− APC antibody, the percentage of CD34^+ HP cells was detected by flow cytometry. To initiate the differentiation from HP cells into iNK cells (Stage 2), EBs were collected and seeded in 6-well-plates coated with matrix proteins, DLL4 and VCAM1, in a Stage 2 differentiation medium comprising NKSFM and supplemented with SCF (20 ng/mL), Flt3L (10 ng/mL), IL-7 (25 ng/mL, Peprotech), IL-3 (5 ng/mL, Peprotech), IL-2 (700 IU/mL), IL-15 (10 ng/mL, Peprotech) for 14 days. On Day 21 (Stage 2-wk2), derived cells were counted and stained with CD56-PE antibody, the percentage of CD56^+ iNK cells were detected by flow cytometry. […] This improvement is attributed to the addition of NAM, PLT and Heparin sodium in NKSFM as compared with IF-4.\nhiPSCs were prepared as described in CN108373998B. Basal medium used during Stage 2 of differentiation was also evaluated. On Day-1, Embryoid body (EB) formation (Stage 1-1) was carried out by placing individualized hiPSCs in E8 medium containing 10 μM Blebbistatin in T25 flasks on a shaker and cultured overnight. On Day 0, lateral mesoderm differentiation (Stage 1-2) was initiated by changing the medium to a Stage 1-2 differentiation medium comprising IF-4 basal medium and supplemented with BMP4 (25 ng/mL), VEGF (15 ng/mL), bFGF (0.5 ng/mL) and CHIR99021 (4 μM) for 2 days. On Day 2, lateral mesoderm differentiation (Stage 1-3) continued for 1 day in a Stage 1-3 differentiation medium comprising IF-4 basal medium and supplemented with BMP4 (25 ng/ml), VEGF (15 ng/mL) and bFGF (0.5 ng/mL) and CHIR99021 (4 μM). On Day 3, HE specification (Stage 1-4) was initiated by adding a Stage 1-4 differentiation medium comprising IF-4 basal medium and supplemented with VEGF (15 ng/mL), bFGF (5 ng/ml), SB431542 (6 μM) for 1 day. On Day 4 (the end of Stage 1-4), EBs were dissociated into single cells and stained with KDR-APC antibody, the percentage of KDR+ cells was detected by flow cytometry. HP differentiation (Stage 1-5) in was initiated by adding a Stage 1-5 differentiation medium comprising NKSFM and supplemented with SCF (50 ng/ml), Flt3L (10 ng/mL), VEGF (15 ng/mL) and bFGF (5 ng/mL) for 5 days. […]"}, "PBNK cells": {"tested_on": "PBNK cells", "experiment": "Expansion of PBNK cells from PBMCs (expansion fold, CD56+CD3- percentage by flow cytometry)", "format": "cell-based", "conditions": "effect of NAM concentration (0-5 mM) in basal medium", "method": "The effect of the concentration of nicotinamide (NAM) in an exemplary basal medium on NK cell expansion was evaluated. The above basal medium comprised the following components: IMDM (Sigma):RPMI1640 (Gibco) (50%: 50%); about 1.3 ng/ml of Cupric sulfate, about 3 μM of Ferric sulfate, about 0.432 μg/mL of Zinc sulfate, about 1˜50 ng/ml of Na Selenite, about 110 μg/mL of Sodium pyruvate, 0.1˜20 μg/mL of Insulin, 1˜200 μg/mL of Transferrin, about 1% (v/v) of GlutaMAX-1, 0.1˜20 mg/mL of HSA, 1˜400 μM of MTG, about 80 μg/mL of Ascorbic acid and indicated concentration of NAM. Peripheral blood mononuclear cells (PBMCs) were isolated by density gradient centrifugation using Ficoll-Paque. On Day 0, PBMCs were plated at 1×10^6 cells/mL in a 48-well-plate in the basal medium with NAM (either 0, 1, 2, 2.5, 3, 3.5, 4, or 5 mM) and stimulated with the following reagents for 3 days: immobilized CD16 antibody (Biolegend, 302014) (135 ng/cm^2), IL-2 (700 IU/mL), IL-15 (10 ng/ml) and OK432 (0.01 KE/mL). On day 3, cells were re-suspended in the above basal medium supplemented with IL-2 (700 IU/mL) and IL-15 (10 ng/mL). Fresh medium was added every other day to maintain cell density below 2×10^6 cells/mL. Cells were collect on Day 14 and stained with CD56-PE and CD3-PerCP-Cy5.5 antibodies, the percentage of CD56^+CD3^− NK cells was analyzed by flow cytometry.\nThe effect of heparin sodium concentration in an exemplary NKSFM on NK cell expansion was also evaluated. NKSFM comprised the following components: IMDM (Sigma):DMEM/F12 (Gibco) (50%: 50%); about 20 μM of Ethanolamine, about 1˜50 ng/ml of Na Selenite, about 110 μg/mL of Sodium pyruvate, 0.1˜20 μg/mL of Insulin, 1˜200 μg/mL of Transferrin, about 1% (v/v) of GlutaMAX-1, 0.1˜20 mg/mL of Human serum albumin, 1˜400 μM of MTG, about 80 μg/mL of Ascorbic acid, about 1˜5 mM of NAM, 4% (v/v) of PLT, and indicated concentration of heparin sodium. PBMCs were isolated by density gradient centrifugation using Ficoll-Paque. On Day 0, PBMCs were plated at 1×10^6 cells/mL in a 48-well-plate in NKSFM with heparin sodium (0, 0.5, 1, 3, 10, 30, or 50 μg/mL) and stimulated with the following reagents for 3 days: immobilized CD16 antibody (Biolegend, 302014) (135 ng/cm^2), OK432 (0.01 KE/mL), NeoIL-2 (50 ng/ml), IL-12 (10 ng/mL), IL-18 (50 ng/mL). […] Cells were collect on Day 13 and stained with CD56-PE and CD3-PerCP-Cy5.5 antibodies, the percentage of CD56^+CD3^− NK cells was analyzed by flow cytometry. The specific lysis of K562 tumor cells by NK cells were assessed by CFSE/7-AAD cytotoxicity assay. […] After incubation for 4 hours, cells were stained with 7-AAD (Live/dead staining) and analyzed with flow cytometry.\nThe effect of PLT percentage (v/v) in an exemplary NKSFM on NK cell expansion was evaluated. […]"}, "[1]": {"conditions": "higher VEGF concentration during Stage 1-5"}}, "data": [{"compound": "Cc1c[nH]c(-c2cnc(NCCNc3ccc(C#N)cn3)nc2-c2ccc(Cl)cc2Cl)n1", "note": "[CHIR99021]", "values": [{"measurement": "differentiation into CD34+ HP cells", "setting": "hiPSCs; higher concentration of CHIR99021 (5-8 μM) during Stage 1-2, FIG. 9A", "value": "generally more advantageous"}, {"measurement": "differentiation into CD56+ iNK cells", "setting": "hiPSCs; higher concentration of CHIR99021 (5-8 μM) during Stage 1-2, FIGS. 9B and 9C", "value": "somewhat disadvantageous"}, {"measurement": "differentiation into CD34+ HP cells", "setting": "hiPSCs; lower concentration of CHIR99021 (0-4 μM) during Stage 1-3, FIG. 10A", "value": "somewhat disadvantageous"}, {"measurement": "differentiation into CD56+ iNK cells", "setting": "hiPSCs; lower concentration of CHIR99021 (0-4 μM) during Stage 1-3, FIGS. 10B and 10C", "value": "generally more advantageous"}]}, {"compound": "NC(=O)c1cccnc1", "note": "[NAM, nicotinamide]", "values": [{"measurement": "NK cell expansion fold", "setting": "PBNK cells; Day 14, FIG. 2A", "value": "significantly impacts"}, {"measurement": "percentage of CD56+CD3− NK cells", "setting": "PBNK cells; Day 14, FIG. 2B", "value": "minimal effects"}]}, {"compound": "NC(=O)c1ccc(-c2nc(-c3ccc4c(c3)OCO4)c(-c3ccccn3)[nH]2)cc1", "note": "[SB431542]", "values": [{"measurement": "output of CD34+ HP cells", "setting": "hiPSCs", "value": "improvement in increasing CD34^+ HP cell production at a certain degree"}, {"measurement": "output of CD56+ iNK cells", "setting": "hiPSCs", "value": "does not show any improvement"}]}, {"compound": "Oc1nc(-c2ccc(C(F)(F)F)cc2)nc2c1CSCC2", "note": "[XAV939]", "values": [{"measurement": "output of CD34+ HP cells", "setting": "hiPSCs", "value": "significantly promotes"}, {"measurement": "output of CD56+ iNK cells", "setting": "hiPSCs", "value": "significantly promotes"}]}, {"compound": "VEGF", "values": [{"measurement": "percentage of KDR+ HE cells", "setting": "hiPSCs; different VEGF concentration (15-100 ng/mL) in Stage 1, FIG. 11A", "value": "minimal effects"}, {"measurement": "percentage of CD34+ HP cells", "setting": "hiPSCs; different VEGF concentration (15-100 ng/mL) in Stage 1, FIG. 11B", "value": "significantly impacts"}, {"measurement": "efficiency of further differentiation into iNK cells", "setting": "hiPSCs; different VEGF concentration (15-100 ng/mL) in Stage 1, cell morphology, FIG. 11C", "value": "significantly impacts"}, {"measurement": "differentiation into HP cells and iNK cells", "setting": "hiPSCs; higher VEGF concentration during Stage 1-2 and Stage 1-3", "value": "generally beneficial"}, {"measurement": "differentiation into HP cells", "setting": "hiPSCs; [1]", "value": "generally beneficial"}, {"measurement": "differentiation into iNK cells", "setting": "hiPSCs; [1]", "value": "but not into iNK cells"}, {"measurement": "HP and iNK cell differentiation", "setting": "hiPSCs; higher concentration of VEGF during Stage 1, especially Stage 1-2, 1-3 and 1-4, FIG. 12", "value": "significantly improves"}]}]}
